From US20120107417A1, “Effective Antitumor Treatments” (PHARMA MAR, S.A., priority 2000, published 2012)
Like-named read-outs stand apart in the source and are kept apart here.

Legend:
[1] = system: human rabdomyosarcoma zenograft TE671; experiment: ET-743/doxorubicin against TE671 xenograft in athymic (nude) mice; format: in vivo
Protocol: In vivo: Single iv treatments (ET-743, 0.1 mg/Kg; DOX, 10 mg/Kg) were administered in nude mice when xenograft tumors weighed approximately 100 mg.

[2] = system: murine fibrosarcoma UV2237; experiment: ET-743/doxorubicin against murine fibrosarcoma UV2237 in mice; format: in vivo; settings: alone or combination
[3] = system: UV2237/ADR; experiment: ET-743/doxorubicin against mdr-resistant subline UV2237/ADR in mice; format: in vivo, murine; settings: alone or combination
[4] = system: HT-1080; experiment: SRB cytotoxicity assay and Chou-Talalay combination index, HT-1080; format: cell-based, human
Protocol: (§1) Soft tissue sarcoma cell lines, HT-1080 and HS-18 were maintained as monolayer cultures in RP<I-1640 containing 10% fetal bovine serum.
(§2) Cytotoxicity to drugs was determined by SRB cytotoxicity assay carried out in 96-well microtiter plates as described. Cells were plated in duplicate wells (5000 cells/well) and exposed to drugs at different concentrations. Cells were fixed with 50% TCA solution for 1 h and 0.4% SRB (Sigma) was added to each well. After a 30 min incubation, the plate were washed with 1% acetic acid and read at 570 nm on a Biowhitaker microplate reader 2001. The wells with cells containing no drugs and with medium plus drugs but no cells were used as positive and negative controls, respectively.
(§3) Cells were seeded into 96-well plates, as described previously. Cells were treated with seven different concentrations of the single drugs or combinations mixture at 1:100 (ET-743: the other drugs) molar ratio. After 72 h exposure, growth inhibition was measured using the SRB assay.
(§4) Using the same experimental setup described above, we exposed cells to three different concentrations of drugs which represents the IC25, IC50, IC75 of ET-743, DXR, TMTX and paclitaxel, respectively. After 24 hours pre-treatment with ET743 or the combination drug, the second drugs were added to the respective wells for 48 h. Growth inhibition was determined using the SRB assay.)
(§5) The CI was calculated by the Chou-Talalay equation, which takes into account both potency (Dm or IC50) and the shape of the dose effect curve (the m value). The general equation for the classic isobologram (CI=1) is given by:
(§6) CI=(D)1/(Dx)1+(D)2/(Dx)2 (A)

[5] = system: HS-18; experiment: SRB cytotoxicity assay and Chou-Talalay combination index, HS-18; format: cell-based, human
Protocol: as §1, §2, §3, §4, §5, §6

[6] = system: HT-1080 cells; experiment: Cell cycle analysis (propidium iodide, FACS), HT-1080; format: cell-based, human
Protocol: (§7) Exponentially growth cells were treated with or without drugs for several hours. Cells were then collected and fixed with ice-cold 70% methanol. DNA was stained with propidium iodide as described previously. Ten thousand stained cells were analyzed on a Becton Dickinson fluorescence-activated cell sorter (FACS).

[7] = system: HS-18 cells; experiment: Cell cycle analysis (propidium iodide, FACS), HS-18; format: cell-based, human
Protocol: as §7

[8] = system: TE 671 cells; experiment: Clonogenic assay ET-743/DOX, TE 671; format: cell-based, human; settings: 1 hr exposures, isobologram analysis and Combination Index
Protocol: In vitro: The effect of each drug or combination after 1 hr exposures was evaluated by clonogenic assay.

[9] = system: sc transplanted TE671; experiment: ET-743/DDP against sc transplanted TE671; format: in vivo, human; settings: single drugs at MTD or combination
[10] = system: ovarian 1 A 9 tumor; experiment: ET-743/DDP against ovarian 1A9 tumor in vivo; parameters: species or system human; settings: single agents
Text: The ovarian 1 A 9 tumor that is normally resistant to both ET-743 and DDP as single agents, in combination produced a tumor growth inhibition greater than 50%.

[11] = system: human ovarian carcinoma HOC8; experiment: ET-743/DDP against orthotopically transplanted HOC8; format: in vivo; settings: HOC8 orthotopic, peritoneal nodules with ascites; single agents
[12] = system: chondrosarcoma (CSHA); experiment: Hollow fiber (HF) model, chondrosarcoma; format: in vivo
Text: (§8) Osteosarcoma xenografts produced similar results of 17% vs. 43%. […] The one exception was in NSCL were Et743 alone was not active (62% T/C) but DPP followed by Et743 produced CR (<1% T/C). In renal xenografts Et743 alone was very active (22% T/C) but Et743 followed by VINB also produced CR (<1% T/C). Separate studies are underway with other standard agents in breast, renal, melanoma and gastric tumor xenografts.

[13] = system: fibrosarcoma (SW684); experiment: Hollow fiber (HF) model, fibrosarcoma; format: in vivo; settings: DOX 8 mg/Kg 1 hr pre-Et743 0.2 mg/Kg vs Et743 alone, qdx5
Text: as §8

[14] = system: osteosarcoma (OSA-FH); experiment: Hollow fiber (HF) model, osteosarcoma; format: in vivo
Text: as §8

[15] = system: osteosarcoma (OSA-FH); experiment: Osteosarcoma xenografts; format: in vivo; settings: DOX 1 hr pre-Et743 vs Et743 alone
Text: as §8

[16] = system: ovary (MRI-H-1834); experiment: Hollow fiber (HF) model, ovary; format: in vivo; settings: Et743 0.2 mg/Kg pre-DDP 12 mg/Kg vs Et743 alone
Text: as §8

[17] = system: xenograft; experiment: Xenograft, Et743 pre-DDP (tumor not named); format: in vivo; settings: xenograft data; Et743 pre-DDP vs Et743 alone
Text: as §8

[18] = system: NSCL (LX-1); experiment: NSCL tumor, Et743 and DDP; format: in vivo; settings: Et743 alone vs DDP followed by Et743
Text: as §8

[19] = system: renal (MRI-H-121); experiment: Renal xenografts, Et743 and VINB; format: in vivo; settings: Et743 alone vs Et743 followed by VINB 6 mg/Kg
Text: as §8

[20] = Plasma levels of ET-743 in rats pretreated with dex; format: in vivo; settings: rats given dex 50 mg/kg daily for 3 days prior to ET-743, compared to ET-743 alone
Protocol: (§9) Plasma levels of ET-743 in rats which received dex (50 mg/kg) daily for 3 days prior to ET-743 were not decreased compared to those in rats on ET-743 alone. Furthermore, the activity of ET-743 against B16 melanoma implanted into mice was not impeded by dexamethasone.

[21] = system: B16 melanoma; experiment: Activity of ET-743 against B16 melanoma with dexamethasone; format: in vivo; settings: mice
Protocol: as §9

[22] = system: liver; settings: rat
Protocol: In the light of the antiinflammatory activity of dex, we investigated its effect on liver damage induced by ET-743 in the rat. Female Wistar rats received a single iv dose of ET-743 (40 μg/kg). Some rats were pretreated with a single oral dose of dex either at 1, 5, 10 or 20 mg/kg 24 h prior to ET-743 treatment. Liver pathology and plasma concentrations of alkaline phophatase (ALP), aspartate aminotransferase (GOT) and total bilirubin (TB) were assessed up to 3 days post ET-743 administration. Conventional histological sections of the livers were examined by light microscopy.

[23] = system: mismatch repair (MMR) deficient cells; settings: MMR deficient vs proficient cells; previous studies; cited from earlier work
[24] = system: NER deficient cells; settings: NER deficient cells very sensitive to cisplatin; previous studies; cited from earlier work
[25] = system: melanoma (MEXF 989); settings: Hendriks et al. 1999; cited from earlier work
[26] = system: NSCL (LXFL 529); settings: Hendriks et al. 1999; cited from earlier work
[27] = system: ovary (HOC 22); settings: Hendriks et al. 1999; cited from earlier work
[28] = system: breast carcinoma (MX-1); settings: Hendriks et al. 1999; cited from earlier work
[29] = single i.v. treatment at tumor approx. 100 mg, drug alone (ET-743 0.1 mg/kg; Dx 10 mg/kg)
[30] = 24 h after treatment with approximate IC50 dose
[31] = 72 h after treatment with approximate IC50 dose
[32] = DOX 8 mg/Kg 1 hr pre-Et743 0.2 mg/Kg vs Et743 alone, qdx5
[33] = ET-743 40 μg/kg iv alone, after 2 days

Ecteinascidin 743 [ET-743]
antitumor effect in words ([1]; TE671 in mice, alone or combination): inactive or marginally active
Log 10 Cell Kill (LCK) [1, 29]: 0.132
tumor weight inhibition (TWI) [1, 29]: 46%
antitumor effect in words [2]: effective
antitumor effect in words [3]: inactive or marginally active
IC50 ([4]; HT 1080 fibrosarcoma cell line, read-out: IC50): 0.01 nM
IC50 ([5]; HS-18 liposarcoma cell line, read-out: IC50): 0.27 nM
% G1 [6, 30]: 42.6%
% G2-M [6, 30]: 21.3%
% S phase [6, 30]: 36.1%
% G1 [6, 31]: 83.1%
% G2-M [6, 31]: 6.7%
% S phase [6, 31]: 10.2%
% G1 [7, 30]: 32.4%
% G2-M [7, 30]: 20.0%
% S phase [7, 30]: 47.6%
% G1 [7, 31]: 86.7%
% G2-M [7, 31]: 4.9%
% S phase [7, 31]: 8.4%
anti-tumor activity / interaction in clonogenic assay [8]: showed anti-tumor activity
antitumor effect in words [9]: partially sensitive
sensitivity of tumor to single agent [10]: resistant
sensitivity of tumor to single agent [11]: resistant
T/C [12, 32]: 10%
T/C ([12]; Et743 0.2 mg/Kg pre-DDP 12 mg/Kg vs Et743 alone): 19%
T/C [13]: 48%
T/C [14, 32]: 34%
T/C ([14]; Et743 pre-DDP and Et743 alone, equivalent activities): 36%
T/C [15]: 43%
T/C [16]: 100%
T/C [17]: 66%
T/C [18]: 62%
T/C [19]: 22%
Plasma levels of ET-743 [20]: not decreased
activity of ET-743 against B16 melanoma [21]: not impeded
Plasma levels of ALP [22, 33]: significantly elevated
Plasma levels of GOT [22, 33]: significantly elevated
plasma TB concentrations ([22]; ET-743 40 μg/kg iv alone, commenced on day 2): dramatic increase
liver pathology ([22]; ET-743 40 μg/kg single iv alone, 2 days post treatment): bile duct inflammation, striking degenerative changes in biliary epithelial cells and zones of hepatic necrosis
sensitivity to ET-743 compared with proficient cells [23]: equally sensitive
times less sensitive to ET-743 [24]: 6-8 times
in vivo tumor growth inhibition, single agent [25]: complete remissions
in vivo tumor growth inhibition, single agent [26]: complete remissions
in vivo tumor growth inhibition, single agent [27]: complete remissions
in vivo tumor growth inhibition, single agent [28]: complete remissions

CC(=O)O[C@H]1C(=O)[C@@]2(C)[C@H]([C@H](OC(=O)c3ccccc3)[C@]3(O)C[C@H](OC(=O)[C@H](O)[C@@H](NC(=O)c4ccccc4)c4ccccc4)C(C)=C1C3(C)C)[C@]1(OC(C)=O)CO[C@@H]1C[C@@H]2O [Paclitaxel]
IC50 ([4]; Homo sapiens, HT-1080, 72 h, read-out: IC50 for human soft tissue sarcoma cells, HT-1080): 1.3 nM
IC50 ([5]; Homo sapiens, 72 h, read-out: IC50 for human soft tissue sarcoma cells, HS-18): 10 nM
% G1 [6, 30]: 45.4%
% G2-M [6, 30]: 17.3%
% S phase [6, 30]: 37.3%
% G1 [6, 31]: 86.0%
% G2-M [6, 31]: 5.0%
% S phase [6, 31]: 9.0%
% G1 [7, 30]: 32.8%
% G2-M [7, 30]: 15.5%
% S phase [7, 30]: 52.5%
% G1 [7, 31]: 23.5%
% G2-M [7, 31]: 26.2%
% S phase [7, 31]: 58.7%

C[C@@H]1C[C@H]2[C@@H]3CCC4=CC(=O)C=C[C@]4(C)[C@@]3(F)[C@@H](O)C[C@]2(C)[C@@]1(O)C(=O)CO [dex, dexamethasone]
protection against ET-743 liver damage ([22]; dex 1 mg/kg single oral dose 24 h prior to ET-743): little protection
protection against ET-743 liver damage ([22]; dex 5 mg/kg single oral dose 24 h prior to ET-743): moderately protective
effect on ET-743-induced histopathological changes and elevation of plasma ALP, GOT and TB ([22]; dex 10 mg/kg single oral dose 24 h prior to ET-743 40 μg/kg iv): totally abrogated
effect on ET-743-induced histopathological changes and elevation of plasma ALP, GOT and TB ([22]; dex 20 mg/kg single oral dose 24 h prior to ET-743 40 μg/kg iv): totally abrogated
